Measurements published in PMC3673949, “Small Molecule R1498 as a Well-Tolerated and Orally Active Kinase Inhibitor for Hepatocellular Carcinoma and Gastric Cancer Treatment via Targeting Angiogenesis and Mitosis Pathways” (PLoS ONE, 2013).

What was measured:
[1] = test system: 402 kinases; assay: KINOMEScan kinase affinity profiling; format: binding; conditions: 1 µM, ATP around Km of each kinase; 359 wild-type kinases and 43 mutants
Procedure: The affinity of R1498 against 402 kinases was determined by KINOMEScan® (Ambit Biosciences, San Diego, CA) and data were presented as dissociation constant (Kd) values. The inhibition on kinase activity of Aurora kinases and VEGFR2 was further characterized by Z’-Lyte kinase activity assays under corresponding ATP concentrations.

[2] = test system: tubulin; assay: In vitro tubulin polymerization assay; format: biochemical; conditions: 40 µM, OD340
Procedure: In vitro tubulin polymerization assay was performed as described previously.

[3] = test system: HUVEC (FBS stimulated); assay: HUVEC proliferation in 10% FBS; format: cell-based; conditions: Homo sapiens, 72 h
Procedure: Each cell line was seeded in a 96-well tissue culture plate (Corning, NY) at a predetermined density in 180 µL complete medium, attached overnight and treated by compound for another 72 h. Then the medium was discarded and replaced with 10% CCK-8 (Dojindo, Kumamoto, Japan) in complete medium, then incubated the plates for another 2 h. The OD450 was measured with SpectraMAX 190 spectrophotometer (MDS, Sunnyvale, CA). A background absorbance of ODblank was subtracted from all wells.
In VEGF-induced HUVEC proliferation assay, the HUVECs suspended in 170 µL EGM-2 with 0.5% FBS were seeded and incubated overnight. After the cells attached, 10 µL 1 µg/ml recombinant human VEGF 165 (R&D systems, Minneapolis, MN) was added to each well together with 20 µl compound solutions prepared in EGM-2 with 0.5% FBS. The CCK-8 assay as above was used for determination of cell viability.

[4] = test system: BEL-7402 xenograft; assay: Xenograft efficacy study; format: in vivo, BALB/C nu/nu nude mice
[5] = test system: GC46 xenograft; assay: Patient primary gastric tumor derived xenograft; format: in vivo, BALB/C nu/nu nude mice; conditions: GC46, 25 mpk bid, p.o.
Procedure: (§1) In human primary tumor models, fresh human gastric tumor tissues were directly implanted into nonobese diabetic and severe combined immune-deficient (NOD-SCID) mice within 5 hours post-surgery with 5 mm^3 fragments to establish primary tumor xenograft models. […] Treatment began when tumor volume reached 100∼150 mm^3. The tumor measurement and operation protocol was the same as cell line derived tumor model.

[6] = test system: GC318 xenograft; assay: Patient primary gastric tumor derived xenograft; format: in vivo, BALB/C nu/nu nude mice; conditions: GC318, 25 mpk bid, p.o.
Procedure: as §1

[7] = test system: GC16 xenograft; assay: Patient primary gastric tumor derived xenograft; format: in vivo, BALB/C nu/nu nude mice; conditions: GC16, 25 mpk bid, p.o.
Procedure: as §1

[8] = test system: phospho-Aurora kinase A (T288); assay: Immunofluorescence / western blot of Aurora A activity marker in SGC-7901; format: cell-based, human
Procedure: Cell lysate was prepared in RIPA buffer and quantified by the bicinchoninic acid (BCA) method (Pierce, Rockford, IL). Thirty micrograms of protein per sample was loaded onto a 4∼12% NuPAGE® Novex SDS gel (Invitrogen). The protein was transferred by an iBlot® dry blotting device (Invitrogen) onto nitrocellulose membranes. After blocking nonspecific binding with TBS/Tween20 (0.1%) (TBS/T) containing 5% non-fat milk for 1 h at room temperature, the membrane was incubated in phospho-Aurora A (Thr288) (C39D8) rabbit monoclonal antibody (Cell Signaling Technology, CST #3079, Beverly, MA) or phospho-Histone H3 (Ser10) rabbit polyclonal antibody (CST#9701) (1∶1000 in TBS/T containing 3% bovine serum albumin (BSA), and gently shaken at 4°C overnight. The membrane was washed with TBS/T three times to remove the unbound antibody, then incubated with the secondary antibody (HRP-conjugated goat anti-mouse IgG or goat anti-rabbit IgG, 1∶10000, KangChen Biotech, Shanghai, China) for 1 h at room temperature, respectively. Protein bands were visualized with an enhanced chemiluminescence (ECL) kit (Pierce, Rockford, IL). […]

[9] = test system: CNE-2 xenograft
Description: The use and care of experimental animal was approved by Institutional Animal Care and Use Committee, Roche R&D Center (China). Tumor cells were inoculated into the right flank of BALB/C nu/nu female nude mice (5∼6 weeks, 16∼18 g, obtained from Sino-British SIPPR/BK Lab. Animal Ltd, Shanghai, China) at optimal density based on our in-house validation study. After the tumor was established and reached 100∼150 mm^3, the mice were randomized into ten mice per group and received treatment according to the schedule. The tumor growth was recorded three times a week with the measurement of length (L) and width (W) by caliper, and calculated as tumor volume (TV, mm^3) = 0.5*L*W*W (mm). […] The tumor regression of individual mouse was defined - the tumor volume at the end was less than the tumor volume when treatment was initiated.

SMILES: COc1ccc2c(c1)C(c1ccccc1Cl)=Nc1c(n[nH]c1C)N2 [R1498]
- number of kinases with inhibition rate over 80% out of 402 kinases [1]: 39
- effect on microtubule polymerization [2]: neither stabilized nor destabilized microtubule polymerization
- IC50 [3]: 2060 nM
- Final TGI% ([4]; BEL-7402, 25 mg/kg twice a day per oral gavage, day of study termination): 102%
- Body weight changes% ([4]; BEL-7402, 25 mg/kg twice a day per oral gavage, before vs after treatment): 2%
- Tumor Regression ([4]; BEL-7402, 25 mg/kg twice a day per oral gavage, mice with regression/group): 8/10
- Final TGI% ([4]; BEL-7402, 3.125 mpk, bid, PO): 56%
- Final TGI% ([4]; BEL-7402, 6.25 mpk, bid, PO): 69%
- Final TGI% ([4]; BEL-7402, 12.5 mpk, bid, PO): 90%
- Regression [5]: 2/10
- TGI% [5]: 73.6%
- Regression [6]: 1/10
- TGI% [6]: 91.6%
- Regression [7]: 3/10
- TGI% [7]: 89.3%
- Aurora A T288 green foci in mitotic cells (immunofluorescence) ([8]; SGC-7901, 5 µM, 24 h): became weaker or disappeared
- phosphorylation of phospho-Aurora kinase A (T288) (western blot) ([8]; SGC-7901 synchronized with nocodazole, various concentrations, acute treatment): decreased in a concentration-dependent manner
- Body weight changes% ([9]; CNE-2, 25 mg/kg twice a day per oral gavage, before vs after treatment): 16.3%
- Tumor Regression ([9]; CNE-2, 25 mg/kg twice a day per oral gavage, mice with regression/group): 0/10
- Final TGI% ([9]; CNE-2, 25 mg/kg twice-daily per oral gavage, day of study termination): 90%
